The source made the active and inactive calls.
Key:
Format in all cases: functional, organism-based
Mus musculus [1] = assay: Immunostimulatory activity in C57BL/6J mouse assessed as increase in production of IFNgamma in serum at 2 ug, iv by ELISA
Mus musculus [2] = assay: Immunostimulatory activity in C57BL/6J mouse assessed as increase in production of IL-12p70 in serum at 2 ug, iv measured at 3 to 6 hrs by cytometric bead array method
Mus musculus [3] = assay: Immunostimulatory activity in C57BL/6J mouse assessed as increase in production of IL-4 in serum at 2 ug, iv measured at 3 hrs by cytometric bead array method
Mus musculus [4] = assay: Immunostimulatory activity in iv dosed C57BL/6J mouse assessed as increase in production of IL-4 in serum measured at 3 hrs by cytometric bead array method
Mus musculus [5] = assay: Immunostimulatory activity in C57BL/6J mouse assessed as increase in production of IFNgamma in serum at 0.02 ug, iv by ELISA
Mus musculus [6] = assay: Immunostimulatory activity in C57BL/6J mouse assessed as increase in production of IL-4 in serum at 0.02 to 2 ug, iv measured at 3 hrs by cytometric bead array method

Measured: Activity

CCCCCCCCCCCCCCCCCCCCCCCCCC(=O)N[C@@H](CO[C@H]1O[C@H](COCCC)[C@H](O)[C@H](O)[C@H]1O)[C@H](O)[C@H](O)CCCCCCCCCCCCCC
active: Mus musculus [1] | Mus musculus [2] | Mus musculus [3]

CCCCCCCCCCCCCCCCCCCCCCCCCC(=O)N[C@@H](CO[C@H]1O[C@H](COCC)[C@H](O)[C@H](O)[C@H]1O)[C@H](O)[C@H](O)CCCCCCCCCCCCCC
active: Mus musculus [1] | Mus musculus [2] | Mus musculus [3]

CCCCCCCCCCCCCCCCCCCCCCCCCC(=O)N[C@@H](CO[C@H]1OC[C@H](O)[C@H](O)[C@H]1O)[C@H](O)[C@H](O)CCCCCCCCCCCCCC
active: Mus musculus [1] | Mus musculus [2] | Mus musculus [3]

CCCCCCCCCCCCCCCCCCCCCCCCCC(=O)N[C@@H](CO[C@H]1O[C@H](COCOC)[C@H](O)[C@H](O)[C@H]1O)[C@H](O)[C@H](O)CCCCCCCCCCCCCC
active: Mus musculus [1] | Mus musculus [2] | Mus musculus [3]

CCCCCCCCCCCCCCCCCCCCCCCCCC(=O)N[C@@H](CO[C@H]1O[C@H](COC)[C@H](O)[C@H](O)[C@H]1O)[C@H](O)[C@H](O)CCCCCCCCCCCCCC
active: Mus musculus [4] Dose-dependent effect | Mus musculus [1] | Mus musculus [5] | Mus musculus [2] | Mus musculus [3]

CCCCCCCCCCCCCCCCCCCCCCCCCC(=O)N[C@@H](CO[C@H]1O[C@H](COCOCCOC)[C@H](O)[C@H](O)[C@H]1O)[C@H](O)[C@H](O)CCCCCCCCCCCCCC
active: Mus musculus [1] | Mus musculus [2] | Mus musculus [3]

CCCCCCCCCCCCCCCCCCCCCCCCCC(=O)N[C@@H](CO[C@H]1O[C@H](COCCO)[C@H](O)[C@H](O)[C@H]1O)[C@H](O)[C@H](O)CCCCCCCCCCCCCC
active: Mus musculus [1] | Mus musculus [2] | Mus musculus [3]

CCCCCCCCCCCCCCCCCCCCCCCCCC(=O)N[C@@H](CO[C@H]1O[C@H](CC)[C@H](O)[C@H](O)[C@H]1O)[C@H](O)[C@H](O)CCCCCCCCCCCCCC
active: Mus musculus [1] | Mus musculus [2] | Mus musculus [3]

CCCCCCCCCCCCCCCCCCCCCCCCCC(=O)N[C@@H](CO[C@H]1O[C@H](C)[C@H](O)[C@H](O)[C@H]1O)[C@H](O)[C@H](O)CCCCCCCCCCCCCC
active: Mus musculus [1] | Mus musculus [2] | Mus musculus [3]

CCCCCCCCCCCCCCCCCCCCCCCCCC(=O)N[C@@H](CO[C@H]1O[C@H](CF)[C@H](O)[C@H](O)[C@H]1O)[C@H](O)[C@H](O)CCCCCCCCCCCCCC
active: Mus musculus [1] | Mus musculus [2] | Mus musculus [3]

CCCCCCCCCCCCCCCCCCCCCCCCCC(=O)N[C@@H](CO[C@H]1O[C@H](CO)[C@H](O)[C@H](O)[C@H]1O)[C@H](O)[C@H](O)CCCCCCCCCCCCCC
active: Mus musculus [1] | Mus musculus [6] | Mus musculus [2] | Mus musculus [3]
